Assays:
FAK = FAK (Homo sapiens (Human), UniProt Q05397); experiment: Biochemical assay for FAK activity (LANCE TR-FRET, ULight-poly Glu,Ala,Tyr substrate); conditions: GST-tagged FAK, 120 min reaction
Description: (§1) Biochemical Assay for FAK/Pyk2 Activity
(§2) GST-tagged FAK was purchased from Invitrogen (PV3832). GST-tagged PYK2 was purchased from Invitrogen (PV4567). The activity of FAK/PYK2 was measured by monitoring the phosphorylation of a fluorophore labeled ULight-poly Glu, Ala, Tyr (1:1:1) peptide substrate from Perkin Elmer (TRF0101) in the presence of ATP. The phosphorylated tyrosine residue was recognized by a LANCE Europium chelate labeled anti-phosphotyrosine (PY20) antibody from Perkin Elmer (AD0066). This brought the fluorophore and europium chelate in close proximity ([…]) that upon excitation at 320 nm by an Envision (PerkinElmer), energy can be transferred from the donor Europium chelate to the acceptor fluorophore. […] The strength of the signal was, therefore, directly proportional to the FAK/PYK2 activity.
(§3) To measure inhibitory activity of FAK/PYK2 inhibitors, compounds were first prepare as a 1 mM stock in 100% DMSO and 3-fold serial dilution was performed in a 96-well plate (Corning, 3897) to generate 12 different concentration of 100× stock. A 5 μl of 100× stock of each concentration was added to wells containing 95 μl of 1× reaction buffer (40 mM Tris, pH7.5, […], 1 mM DTT and 1 mM CHAPS) to generate 5× stock. Then 2 μl of 5× stock of each concentration was added to a 384 wells-OptiPlate (PerkinElmer, 6007299).
(§4) For FAK, 4 μl of 2.5 nM FAK, 1 ul of 8 μg/μl BSA and 1.5 μl of 666 nM ULight-poly Glu, Ala, Tyr (1:1:1) peptide substrate, prepared in above reaction buffer, were added to each well. The reaction was initiated by adding 1.5 μl of 33.3 μM ATP. The reaction was allowed to proceed for 120 min before being quenched with 5 μl of 40 mM EDTA stop buffer prepared in 1×LANCE detection buffer (PerkinElmer, CR97-100).
(§5) Upon quenching of the reaction, 5 μl of 8 nM anti-phosphotyrosine antibody was added to each well and incubated for 60 minutes. The plate was measured using an Envision (PerkinElmer) based on the theory mentioned above.

PYK2 = PYK2 (Homo sapiens (Human), UniProt Q14289); experiment: Biochemical assay for PYK2 activity (LANCE TR-FRET, ULight-poly Glu,Ala,Tyr substrate); conditions: GST-tagged PYK2, 40 min reaction
PYK2, sequence (Q14289 whole entry): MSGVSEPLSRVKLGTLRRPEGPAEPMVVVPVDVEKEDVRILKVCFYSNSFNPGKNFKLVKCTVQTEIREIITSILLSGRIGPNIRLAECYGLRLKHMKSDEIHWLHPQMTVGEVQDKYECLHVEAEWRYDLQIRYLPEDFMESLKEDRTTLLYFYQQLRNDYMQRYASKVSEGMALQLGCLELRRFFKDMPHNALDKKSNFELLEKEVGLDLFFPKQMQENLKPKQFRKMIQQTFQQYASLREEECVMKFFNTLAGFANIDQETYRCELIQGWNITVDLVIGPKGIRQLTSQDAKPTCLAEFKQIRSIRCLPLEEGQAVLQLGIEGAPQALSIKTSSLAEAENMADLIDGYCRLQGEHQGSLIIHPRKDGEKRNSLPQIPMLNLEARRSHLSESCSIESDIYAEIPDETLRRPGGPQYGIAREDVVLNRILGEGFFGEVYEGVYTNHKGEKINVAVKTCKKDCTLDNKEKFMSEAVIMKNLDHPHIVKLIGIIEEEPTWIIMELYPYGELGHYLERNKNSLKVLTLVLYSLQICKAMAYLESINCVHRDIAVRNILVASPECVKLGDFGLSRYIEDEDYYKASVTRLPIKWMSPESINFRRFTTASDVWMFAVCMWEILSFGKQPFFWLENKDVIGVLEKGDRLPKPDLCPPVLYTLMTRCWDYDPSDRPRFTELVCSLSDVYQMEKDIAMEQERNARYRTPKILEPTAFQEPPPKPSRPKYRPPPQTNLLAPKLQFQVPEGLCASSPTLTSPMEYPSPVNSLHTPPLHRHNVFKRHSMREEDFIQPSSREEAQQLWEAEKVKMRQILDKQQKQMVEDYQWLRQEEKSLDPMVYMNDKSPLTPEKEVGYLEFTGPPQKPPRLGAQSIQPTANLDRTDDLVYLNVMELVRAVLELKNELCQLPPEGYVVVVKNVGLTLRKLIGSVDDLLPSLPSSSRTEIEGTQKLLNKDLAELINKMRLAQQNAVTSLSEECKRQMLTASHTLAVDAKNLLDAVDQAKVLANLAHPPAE
Description: as §1, §2, §3
as §4, with “PYK2, 5” for “FAK, 4”, “2” for “2.5”, “PYK2” for “FAK, 1 ul of 8 μg/μl BSA”, “46.6” for “33.3”, “40” for “120”
as §5

FAK, sequence (Q05397 whole entry): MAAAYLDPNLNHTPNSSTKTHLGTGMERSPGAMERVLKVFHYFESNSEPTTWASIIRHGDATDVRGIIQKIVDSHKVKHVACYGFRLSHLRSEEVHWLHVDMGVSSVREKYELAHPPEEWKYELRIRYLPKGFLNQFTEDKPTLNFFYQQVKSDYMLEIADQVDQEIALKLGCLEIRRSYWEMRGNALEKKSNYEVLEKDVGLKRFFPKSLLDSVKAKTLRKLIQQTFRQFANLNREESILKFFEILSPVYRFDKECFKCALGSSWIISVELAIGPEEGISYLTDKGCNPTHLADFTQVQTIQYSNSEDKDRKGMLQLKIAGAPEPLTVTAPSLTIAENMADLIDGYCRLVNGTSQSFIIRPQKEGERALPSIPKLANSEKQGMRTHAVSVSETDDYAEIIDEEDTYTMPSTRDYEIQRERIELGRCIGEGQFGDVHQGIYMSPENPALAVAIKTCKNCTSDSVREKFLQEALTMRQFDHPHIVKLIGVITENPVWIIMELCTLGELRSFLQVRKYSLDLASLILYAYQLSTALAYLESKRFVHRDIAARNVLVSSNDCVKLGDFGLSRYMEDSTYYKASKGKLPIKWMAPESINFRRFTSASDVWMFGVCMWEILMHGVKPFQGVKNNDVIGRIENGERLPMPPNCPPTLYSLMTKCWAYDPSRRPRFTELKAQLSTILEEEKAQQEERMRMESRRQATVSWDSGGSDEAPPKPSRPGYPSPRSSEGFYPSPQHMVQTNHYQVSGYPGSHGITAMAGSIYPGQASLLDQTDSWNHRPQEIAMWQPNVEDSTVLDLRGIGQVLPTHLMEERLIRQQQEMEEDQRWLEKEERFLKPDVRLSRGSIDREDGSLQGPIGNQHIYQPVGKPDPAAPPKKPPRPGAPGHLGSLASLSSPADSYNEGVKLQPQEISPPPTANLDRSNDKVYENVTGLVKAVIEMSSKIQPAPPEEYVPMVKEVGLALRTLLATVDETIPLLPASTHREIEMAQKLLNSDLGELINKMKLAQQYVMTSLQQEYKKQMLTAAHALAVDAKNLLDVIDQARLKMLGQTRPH

IC50 (FAK) [nM]	IC50 (PYK2) [nM]	SMILES
< 100	< 100	COCCCNS(=O)(=O)c1ccccc1Nc1nc(Nc2ccc(N3CCOCC3)cc2OC)nc2c1CCN2 [Example 48, 2-(2-(2-methoxy-4-morpholinophenylamino)-6,7-dihydro-5H-pyrrolo[2,3-d]pyrimidin-4-ylamino)-N-(3-methoxypropyl)benzenesulfonamide]
< 500	< 500	COc1cc(N2CCOCC2)ccc1Nc1nc2c(c(Nc3ccccc3S(=O)(=O)NCCN(C)C)n1)CCN2 [Example 49, N-(2-(dimethylamino)ethyl)-2-(2-(2-methoxy-4-morpholinophenylamino)-6,7-dihydro-5H-pyrrolo[2,3-d]pyrimidin-4-ylamino)benzenesulfonamide]
< 50	< 50	COCCNS(=O)(=O)c1ccccc1Nc1nc(Nc2ccc(N3CCOCC3)cc2OC)nc2c1CCN2 [Example 50, 2-(2-(2-methoxy-4-morpholinophenylamino)-6,7-dihydro-5H-pyrrolo[2,3-d]pyrimidin-4-ylamino)-N-(2-methoxyethyl)benzenesulfonamide]
< 200	< 500	COc1cc(N2CCOCC2)ccc1Nc1nc2c(c(Nc3ccccc3S(=O)(=O)Nc3ccccc3)n1)CCN2 [Example 51, 2-(2-(2-methoxy-4-morpholinophenylamino)-6,7-dihydro-5H-pyrrolo[2,3-d]pyrimidin-4-ylamino)-N-phenylbenzenesulfonamide]
< 20	< 20	CC(C)NS(=O)(=O)c1ccccc1Nc1nc(Nc2ccc(N3CCOCC3)cc2)nc2c1CCN2 [Example 52, N-isopropyl-2-(2-(4-morpholinophenylamino)-6,7-dihydro-5H-pyrrolo[2,3-d]pyrimidin-4-ylamino)benzenesulfonamide]
< 20	< 20	CNC(=O)c1ccc(Nc2nc3c(c(Nc4ccccc4S(=O)(=O)NC(C)C)n2)CCN3)cc1 [Example 53, 4-(4-(2-(N-isopropylsulfamoyl)phenylamino)-6,7-dihydro-5H-pyrrolo[2,3-d]pyrimidin-2-ylamino)-N-methylbenzamide]
< 20	< 20	CC(C)NS(=O)(=O)c1ccccc1Nc1nc(Nc2ccc(CO)cc2)nc2c1CCN2 [Example 54, 2-(2-(4-(hydroxymethyl)phenylamino)-6,7-dihydro-5H-pyrrolo[2,3-d]pyrimidin-4-ylamino)-N-isopropylbenzenesulfonamide]
< 20	< 20	CC(C)NS(=O)(=O)c1ccccc1Nc1nc(Nc2ccc(N3CCOCC3)cc2F)nc2c1CCN2 [Example 55, 2-(2-(2-fluoro-4-morpholinophenylamino)-6,7-dihydro-5H-pyrrolo[2,3-d]pyrimidin-4-ylamino)-N-isopropylbenzenesulfonamide]
< 20	< 50	COc1nc(N2CCOCC2)ccc1Nc1nc2c(c(Nc3ccccc3S(=O)(=O)NC(C)C)n1)CCN2 [Example 56, N-isopropyl-2-(2-(2-methoxy-6-morpholino-3-ylamino)-6,7-dihydro-5H-pyrrolo[2,3-d]pyrimidin-4-ylamino)benzenesulfonamide]
< 20	< 20	CC(C)NS(=O)(=O)c1ccccc1Nc1nc(Nc2ccc(N3CCOCC3)nc2)nc2c1CCN2 [Example 57, N-isopropyl-2-(2-(6-morpholinopyridin-3-ylamino)-6,7-dihydro-5H-pyrrolo[2,3-d]pyrimidin-4-ylamino)benzenesulfonamide]
< 20	< 50	CC(C)NS(=O)(=O)c1ccccc1Nc1nc(Nc2ccc(N3CCOCC3)cn2)nc2c1CCN2 [Example 58, N-isopropyl-2-(2-(5-morpholinopyridin-2-ylamino)-6,7-dihydro-5H-pyrrolo[2,3-d]pyrimidin-4-ylamino)benzenesulfonamide]
< 500	> 1000	CC(C)NS(=O)(=O)c1ccccc1Nc1nc(Nc2ccc(N3CCOCC3)cc2C(F)(F)F)nc2c1CCN2 [Example 60, N-isopropyl-2-(2-(4-morpholino-2-(trifluoromethyl)phenylamino)-6,7-dihydro-5H-pyrrolo[2,3-d]pyrimidin-4-ylamino)benzenesulfonamide]
< 1000	< 500	CC(C)NS(=O)(=O)c1ccccc1Nc1nc(Nc2ccc(C(F)(F)F)cc2)nc2c1CCN2 [Example 61, N-isopropyl-2-(2-(4-(trifluoromethyl)phenylamino)-6,7-dihydro-5H-pyrrolo[2,3-d]pyrimidin-4-ylamino)benzenesulfonamide]
< 20	< 20	CC(C)NS(=O)(=O)c1ccccc1Nc1nc(Nc2ccc(C(=O)N(C)C)cc2)nc2c1CCN2 [Example 62, 4-(4-(2-(N-isopropylsulfamoyl)phenylamino)-6,7-dihydro-5H-pyrrolo[2,3-d]pyrimidin-2-ylamino)-N,N-dimethylbenzamide]
< 20	< 20	CC(=O)Nc1ccc(Nc2nc3c(c(Nc4ccccc4S(=O)(=O)NC(C)C)n2)CCN3)cc1 [Example 63, N-(4-(4-(2-(N-isopropylsulfamoyl)phenylamino)-6,7-dihydro-5H-pyrrolo[2,3-d]pyrimidin-2-ylamino)phenyl)acetamide]
< 20	< 20	CNS(=O)(=O)c1ccc(Nc2nc3c(c(Nc4ccccc4S(=O)(=O)NC(C)C)n2)CCN3)cc1 [Example 64, N-isopropyl-2-(2-(4-(N-methylsulfamoyl)phenylamino)-6,7-dihydro-5H-pyrrolo[2,3-d]pyrimidin-4-ylamino)benzenesulfonamide]
< 20	< 20	CC(C)NS(=O)(=O)c1ccccc1Nc1nc(Nc2ccc(C(=O)N3CCOCC3)cc2)nc2c1CCN2 [Example 65, N-isopropyl-2-(2-(4-(morpholine-4-carbonyl)phenylamino)-6,7-dihydro-5H-pyrrolo[2,3-d]pyrimidin-4-ylamino)benzenesulfonamide]
< 20	< 50	Cc1cc(N2CCOCC2)ccc1Nc1nc2c(c(Nc3ccccc3S(=O)(=O)NC(C)C)n1)CCN2 [Example 66, N-isopropyl-2-(2-(2-methyl-4-morpholinophenylamino)-6,7-dihydro-5H-pyrrolo[2,3-d]pyrimidin-4-ylamino)benzenesulfonamide]
< 50	< 100	COc1cc(N2CCCC2)ccc1Nc1nc2c(c(Nc3ccccc3S(=O)(=O)NC(C)C)n1)CCN2 [Example 67, N-isopropyl-2-(2-(2-methoxy-4-(pyrrolidin-1-yl)phenylamino)-6,7-dihydro-5H-pyrrolo[2,3-d]pyrimidin-4-ylamino)benzenesulfonamide]
< 50	< 200	COc1cc(N2CCCCC2)ccc1Nc1nc2c(c(Nc3ccccc3S(=O)(=O)NC(C)C)n1)CCN2 [Example 68, N-isopropyl-2-(2-(2-methoxy-4-(piperidin-1-yl)phenylamino)-6,7-dihydro-5H-pyrrolo[2,3-d]pyrimidin-4-ylamino)benzenesulfonamide]
< 20	< 20	CC(C)NS(=O)(=O)c1ccccc1Nc1nc(Nc2ccc(C(C)O)cc2)nc2c1CCN2 (stereo not drawn) [Example 69, 2-(2-(4-(1-hydroxyethyl)phenylamino)-6,7-dihydro-5H-pyrrolo[2,3-d]pyrimidin-4-ylamino)-N-isopropylbenzenesulfonamide]

From patent US9428508B2, “2,4-diamino-6,7-dihydro-5H-pyrrolo[2,3]pyrimidine derivatives as FAK/Pyk2 inhibitors” (Centaurus BioPharma Co., Ltd., priority 2011, dated 2016)
